Measurements reported in the supplement of paper PMC10307832.

Assays:
Assay in all cases: relative viability (nuclei count vs DMSO), 5 days (fraction); higher = more cells survive
[1] = compound: C/C(=N\NC(=S)N1CCC1)/C2=CC=CC=N2
Summary of the method: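 Cells of lung cancer lines were placed in 1536-well plates and kept overnight at 37 °C. Pinning then delivered five library-drug doses (not always all listed), spaced by √10, onto plates anchored with vehicle, and the cells were left 5 days without changing medium. One step fixed, permeabilised and stained them with Hoechst, and MetaXpress counted nuclei in 4× images. Viability, as a median over plates, is treated-well nuclei divided by vehicle-well nuclei, with acceptance only at control CV below 25% and at least one doubling.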

[2] = compound: C/C(=N\NC(=S)N1CCC1)/C2=CC=CC=N2 + O=C(c1cc(Cc2n[nH]c(=O)c3ccccc23)ccc1F)N1CCN(C(=O)C2CC2)CC1 [Olaparib] (partner 8 µM)
Summary of the method: (§1)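 Cells from lung cancer lines were seeded into 1536-well plates and, one day later, dosed by pin tool. Treatments were either a single drug or a fixed dose of an anchor drug with five library-drug doses (not always all listed) in √10 steps. After 5 days, nuclei were stained in a one-step fixation (final 0.05% Triton X-100, 1% formaldehyde, 1 ug/ml Hoechst) and counted on 4× images, and relative viability is the treated-to-vehicle nuclei ratio, as the median of duplicate plates.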

[3] = compound: C/C(=N\NC(=S)N1CCC1)/C2=CC=CC=N2 + N=C(N)NC(=N)NCCc1ccccc1 [Phenformin] (partner 250 µM)
Summary of the method: as §1

[4] = compound: C/C(=N\NC(=S)N1CCC1)/C2=CC=CC=N2 + CC(=O)Nc1cccc(-n2c(=O)n(C3CC3)c(=O)c3c(Nc4ccc(I)cc4F)n(C)c(=O)c(C)c32)c1 [Trametinib] (partner 0.02 µM)
Summary of the method: as §1

Cell Line	relative viability ([1]; 0.05 µM)	relative viability ([1]; 0.1581 µM)	relative viability ([1]; 0.5 µM)	relative viability ([1]; 1.581 µM)	relative viability ([1]; 5 µM)	relative viability ([2]; first compound 0.05 µM)	relative viability ([2]; first compound 0.1581 µM)	relative viability ([2]; first compound 0.5 µM)	relative viability ([2]; first compound 1.581 µM)	relative viability ([2]; first compound 5 µM)	relative viability ([3]; first compound 0.05 µM)	relative viability ([3]; first compound 0.1581 µM)	relative viability ([3]; first compound 0.5 µM)	relative viability ([3]; first compound 1.581 µM)	relative viability ([3]; first compound 5 µM)	relative viability ([4]; first compound 0.05 µM)	relative viability ([4]; first compound 0.1581 µM)	relative viability ([4]; first compound 0.5 µM)	relative viability ([4]; first compound 1.581 µM)	relative viability ([4]; first compound 5 µM)
LCLC-97TM1	0.0886	0.109	0.0593	0.0801	0.0822	0.0715	0.422	0.0519	0.0494	0.0514	0.128	0.189	0.109	0.166	0.139	0.0885	0.152	0.0765	0.0664	0.0773
HARA	0.193	0.21	0.138	0.143	0.138	0.433	0.192	0.13	0.119	0.13	0.0726	0.0701	0.0872	0.047	0.0649	0.322	0.11	0.193	0.109	0.102
HCC-78	0.459	0.472	0.355	0.232	0.234	0.523	0.379	0.32	0.249	0.211	0.279	0.367	0.314	0.247	0.213	0.5	0.377	0.359	0.275	0.23
NCI-H1666	0.433	0.404	0.369	0.349	0.329	0.601	0.547	0.479	0.461	0.523	0.467	0.462	0.419	0.433	0.361	0.545	0.558	0.495	0.467	0.5
NCI-H2347	0.315	0.346	0.34	0.256	0.313	0.334	0.294	0.298	0.274	0.28	0.159	0.195	0.202	0.208	0.273	0.247	0.271	0.244	0.294	0.227
NCI-H838	0.247	0.255	0.279	0.179	0.185	0.184	0.173	0.186	0.159	0.13	0.163	0.171	0.175	0.123	0.139	0.156	0.167	0.157	0.11	0.136
NCI-H2023	0.0831	0.0809	0.0814	0.0675	0.0747	0.0912	0.0578	0.0664	0.0644	0.0565	0.102	0.106	0.0921	0.0767	0.0997	0.0918	0.0896	0.0543	0.069	0.0829
201T	0.432	0.443	0.353	0.345	0.309	0.487	0.871	0.349	0.241	0.247	0.362	0.355	0.343	0.311	0.247	0.575	0.713	0.327	0.407	0.283
NCI-H1915	0.237	0.216	0.199	0.179	0.178	0.155	0.12	0.127	0.122	0.137	0.253	0.231	0.221	0.178	0.179	0.0702	0.0677	0.0851	0.0919	0.112
NCI-H2009	0.122	0.17	0.166	0.156	0.138	0.0968	0.101	0.125	0.154	0.123	0.125	0.185	0.221	0.154	0.184	0.108	0.133	0.102	0.0932	0.111
BEN	0.278	0.237	0.276	0.23	0.227	0.292	0.259	0.271	0.272	0.283	0.155	0.16	0.178	0.232	0.201	0.341	0.344	0.359	0.3	0.268
PC-14	0.0727	0.104	0.0714	0.0553	0.064	0.0569	0.064	0.0532	0.0383	0.0401	0.0972	0.134	0.095	0.0228	0.0472	0.0651	0.0788	0.0488	0.039	0.0546
SK-MES-1	0.197	0.231	0.192	0.171	0.19	0.198	0.213	0.162	0.174	0.164	0.219	0.233	0.197	0.175	0.173	0.277	0.236	0.245	0.213	0.246
NCI-H727	0.25	0.235	0.245	0.27	0.272	0.437	0.273	0.295	0.347	0.4	0.29	0.314	0.341	0.375	0.382	0.361	0.33	0.358	0.367	0.318
NCI-H1355	0.204	0.216	0.21	0.197	0.214	0.22	0.179	0.171	0.175	0.142	0.266	0.295	0.251	0.263	0.2	0.22	0.191	0.136	0.176	0.17
NCI-H1975	0.178	0.179	0.168	0.158	0.185	0.111	0.113	0.118	0.111	0.133	0.187	0.187	0.159	0.12	0.133	0.143	0.118	0.105	0.109	0.119
LK-2	0.172	0.182	0.18	0.14	0.176	0.076	0.14	0.104	0.0854	0.0916	0.119	0.185	0.13	0.085	0.151	0.174	0.187	0.184	0.146	0.159
NCI-H661	0.288	0.32	0.317	0.255	0.262	0.244	0.239	0.202	0.243	0.219	0.262	0.269	0.254	0.211	0.231	0.208	0.263	0.26	0.224	0.213

Cell Line	relative viability ([1]; 0.05 µM)	relative viability ([1]; 0.1581 µM)	relative viability ([1]; 0.5 µM)	relative viability ([1]; 1.581 µM)	relative viability ([1]; 5 µM)	relative viability ([2]; first compound 0.05 µM)	relative viability ([2]; first compound 0.1581 µM)	relative viability ([2]; first compound 0.5 µM)	relative viability ([2]; first compound 1.581 µM)	relative viability ([2]; first compound 5 µM)	relative viability ([3]; first compound 0.05 µM)	relative viability ([3]; first compound 0.1581 µM)	relative viability ([3]; first compound 0.5 µM)	relative viability ([3]; first compound 1.581 µM)	relative viability ([3]; first compound 5 µM)	relative viability ([4]; first compound 0.05 µM)	relative viability ([4]; first compound 0.1581 µM)	relative viability ([4]; first compound 0.5 µM)	relative viability ([4]; first compound 1.581 µM)	relative viability ([4]; first compound 5 µM)
HCC-366	0.0382	0.0453	0.0381	0.0627	0.0401	0.119	0.0248	0.0175	0.0198	0.0219	0.0354	0.0736	0.0328	0.0375	0.0286	0.0818	0.0309	0.0211	0.0256	0.025
HOP-62	0.111	0.0963	0.114	0.11	0.114	0.079	0.0776	0.0561	0.0753	0.0802	0.0721	0.0624	0.0719	0.0958	0.0779	0.216	0.212	0.112	0.131	0.112
NCI-H1944	0.263	0.179	0.19	0.161	0.151	0.27	0.426	0.14	0.136	0.138	0.119	0.144	0.127	0.145	0.146	0.32	0.392	0.144	0.147	0.152
SW 1573	0.119	0.115	0.143	0.102	0.0766	0.0806	0.0899	0.138	0.0631	0.0687	0.0755	0.0616	0.0965	0.0629	0.0599	0.0975	0.0992	0.119	0.0672	0.0635
LU99A	0.161	0.209	0.162	0.145	0.182	0.168	0.207	0.124	0.102	0.128	0.163	0.189	0.145	0.143	0.178	0.186	0.405	0.183	0.152	0.146
NCI-H647	0.114	0.116	0.136	0.115	0.0991	0.0792	0.0588	0.0743	0.0667	0.0631	0.0392	0.0555	0.125	0.0761	0.0797	0.0951	0.0887	0.127	0.114	0.13
A-427	0.16	0.173	0.15	0.144	0.156	0.2	0.191	0.151	0.154	0.167	0.13	0.142	0.134	0.121	0.138	0.226	0.215	0.189	0.185	0.178
COR-L 105	0.287	0.364	0.342	0.245	0.292	0.365	0.381	0.374	0.337	0.318	0.198	0.299	0.29	0.196	0.214	0.376	0.462	0.377	0.343	0.339
NCI-H441	0.233	0.175	0.185	0.145	0.123	0.167	0.136	0.125	0.113	0.138	0.204	0.16	0.197	0.156	0.187	0.143	0.173	0.154	0.11	0.131
EBC-1	0.169	0.214	0.169	0.127	0.154	0.163	0.164	0.152	0.131	0.13	–	–	–	–	–	–	–	–	–	–
NCI-H1648	0.317	0.278	0.25	0.317	0.304	0.624	0.794	0.294	0.278	0.226	–	–	–	–	–	0.408	0.403	0.289	0.302	0.31
ABC-1	0.38	0.303	0.245	0.259	0.361	0.349	0.338	0.301	0.345	0.438	0.196	0.203	0.222	0.202	0.14	–	–	–	–	–
NCI-H1563	0.62	0.6	0.504	0.538	0.522	–	–	–	–	–	0.374	0.472	0.491	0.506	0.611	–	–	–	–	–
NCI-H1299	0.1	0.12	0.186	0.185	0.145	0.111	0.144	0.183	0.167	0.15	–	–	–	–	–	–	–	–	–	–
A549	0.0587	0.0516	0.0603	0.0557	0.0345	0.0312	0.0426	0.0325	0.0517	0.0367	0.0324	0.034	0.0226	0.0286	0.0232	–	–	–	–	–
IA-LM	0.0692	0.0771	0.0669	0.0644	0.0517	0.115	0.107	0.101	0.0716	0.0719	–	–	–	–	–	–	–	–	–	–
Calu-6	0.118	0.147	0.154	0.12	0.14	0.101	0.133	0.141	0.118	0.122	–	–	–	–	–	–	–	–	–	–
